# Laboratory results: US5945422A, “N-oxides of amino containing pyrido [2,3-D] pyrimidines” (Warner-Lambert Company, priority 1998, dated 1999)
# Key:
# Type in all cases: biochemical
# [1] = target: T1, mouse PDGF-β receptor tyrosine kinase (Mus musculus, UniProt P05622); assay: PDGF receptor tyrosine kinase assay (PDGFr-TK); conditions: 10 min at 25° C., glutamate-tyrosine co-polymer substrate; read-out: PDGFr-TK inhibition, IC50
# T1 construct: amplify a fragment of DNA that codes for the intracellular tyrosine kinase domain; made in house; host or cells: SF9 insect cells, baculovirus (cell lysate used)
# T1 sequence (P05622 599-961 limits assumed): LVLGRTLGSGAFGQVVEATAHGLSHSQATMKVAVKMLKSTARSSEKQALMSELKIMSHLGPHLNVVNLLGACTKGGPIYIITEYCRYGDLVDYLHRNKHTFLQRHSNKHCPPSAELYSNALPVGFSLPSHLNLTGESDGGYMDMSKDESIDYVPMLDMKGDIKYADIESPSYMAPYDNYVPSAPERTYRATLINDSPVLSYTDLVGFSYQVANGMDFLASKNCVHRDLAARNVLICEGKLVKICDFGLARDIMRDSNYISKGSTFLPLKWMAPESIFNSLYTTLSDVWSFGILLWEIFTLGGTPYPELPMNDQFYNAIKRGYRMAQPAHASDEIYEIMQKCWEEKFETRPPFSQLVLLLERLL
# Method: SF9 insect cells were infected with the virus to overexpress the protein, and the cell lysate was used for the assay. […] The reaction was terminated by the addition of 100 μL of 30% trichloroacetic acid (TCA) containing 20 mM sodium pyrophosphate and precipitation of material onto glass fiber filter mats (Wallac). […] Nonspecific activity was defined as radioactivity retained on the filters following incubation of samples with buffer alone (no enzyme). Specific enzymatic activity was defined as total activity (enzyme plus buffer) minus nonspecific activity.
# [2] = target: T2, human FGF-1 (flg) receptor tyrosine kinase (Homo sapiens, UniProt P11362); assay: FGF receptor tyrosine kinase assay (FGFr-TK); conditions: 10 min at 25° C., glutamate-tyrosine co-polymer substrate; read-out: FGFr-TK inhibition, IC50
# T2 construct: amplify a fragment of DNA that codes for the intracellular tyrosine kinase domain; made in house; host or cells: SF9 insect cells, baculovirus (cell lysate used)
# T2 sequence (P11362 478-767 limits assumed): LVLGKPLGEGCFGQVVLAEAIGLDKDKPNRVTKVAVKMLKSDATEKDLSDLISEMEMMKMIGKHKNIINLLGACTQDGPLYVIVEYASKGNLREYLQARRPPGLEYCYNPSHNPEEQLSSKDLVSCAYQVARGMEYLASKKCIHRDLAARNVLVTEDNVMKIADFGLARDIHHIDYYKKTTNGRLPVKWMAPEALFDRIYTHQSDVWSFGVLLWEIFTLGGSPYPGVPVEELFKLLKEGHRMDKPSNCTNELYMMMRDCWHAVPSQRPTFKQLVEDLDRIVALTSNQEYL
# Description: PDGF and FGF Receptor Tyrosine Kinase Assays
# Full length cDNAs for the mouse PDGF-β and human FGF-1 (flg) receptor tyrosine kinases were obtained from J. Escobedo and prepared as described in J. Biol. Chem., 262:1482-1487 […], and PCR primers were designed to amplify a fragment of DNA that codes for the intracellular tyrosine kinase domain. The fragment was melded into a baculovirus vector, cotransfected with AcMNPV DNA, and the recombinant virus isolated. SF9 insect cells were infected with the virus to overexpress the protein, and the cell lysate was used for the assay. […] Briefly, to each well was added 82.5 μL of incubation buffer containing 25 mM Hepes (pH 7.0), 150 mM NaCl, 0.1% Triton X-100, 0.2 mM PMSF, 0.2 mM Na3 VO4, 10 mM MnCl2, and 750 μg/mL of Poly (4:1) glutamate-tyrosine followed by 2.5 μL of inhibitor and 5 μL of enzyme lysate (7.5 μg/μL FGF-TK or 6.0 μg/μL PDGF-TK) to initiate the reaction. Following a 10 minute incubation at 25° C., 10 μL of γ^32 P-ATP (0.4 μCi plus 50 μM ATP) was added to each well and samples were incubated for an additional 10 minutes at 25° C. […] Nonspecific activity was defined as radioactivity retained on the filters following incubation of samples with buffer alone (no enzyme). […]
# [3] = target: T3, C-src kinase (Homo sapiens, UniProt P12931); assay: C-src kinase assay; conditions: poly GluTyr substrate, 10 min, room temperature; read-out: C-src TK inhibition, IC50
# T3 construct: made in house; host or cells: baculovirus infected insect cells
# T3 sequence (P12931 whole entry): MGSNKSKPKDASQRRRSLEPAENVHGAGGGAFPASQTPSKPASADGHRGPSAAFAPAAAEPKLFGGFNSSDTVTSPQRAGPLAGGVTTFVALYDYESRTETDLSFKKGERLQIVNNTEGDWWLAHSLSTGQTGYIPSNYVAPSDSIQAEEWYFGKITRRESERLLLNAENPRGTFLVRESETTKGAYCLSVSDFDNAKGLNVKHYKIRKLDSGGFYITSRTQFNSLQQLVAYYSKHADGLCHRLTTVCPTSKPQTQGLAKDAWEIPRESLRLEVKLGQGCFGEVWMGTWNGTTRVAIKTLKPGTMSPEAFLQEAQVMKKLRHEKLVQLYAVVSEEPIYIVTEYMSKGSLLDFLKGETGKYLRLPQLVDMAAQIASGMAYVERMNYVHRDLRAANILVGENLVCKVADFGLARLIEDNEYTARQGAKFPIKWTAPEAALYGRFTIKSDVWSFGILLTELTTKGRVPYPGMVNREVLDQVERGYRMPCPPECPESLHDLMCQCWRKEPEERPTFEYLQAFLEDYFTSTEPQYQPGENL
# Method: The antibody, covalently linked to 0.65-μm latex beads, is added to a suspension of insect cell lysis buffer comprised of 150 mM NaCl, 50 mM Tris pH 7.5, 1 mM DTT, 1% NP-40, 2 mM EGTA, 1 mM sodium vanadate, 1 mM PMSF, 1 μg/mL each of leupeptin, pepstatin, and aprotinin. […] At the end of the lysate incubation, the beads are rinsed 3 times in lysis buffer, resuspended in lysis buffer containing 10% glycerol, and frozen. These latex beads are thawed, rinsed 3 times in assay buffer which is comprised of 40 mM tris pH 7.5, 5 mM MgCl2, and suspended in the same buffer. […] The reaction is started at room temperature by addition of the ATP and quenched 10 minutes later by the addition of 125 μL of 30% TCA, 0.1M sodium pyrophosphate for 5 minutes on ice. The plate is then filtered and the wells washed with two 250-μL aliquots of 15% TCA, 0.1M pyrophosphate. The filters are punched, counted in a liquid scintillation counter, and the data examined for inhibitory activity in comparison to a known inhibitor such as erbstatin. The method is described more fully in J. Med. Chem., 37:598-609 (1994).
compound,measurement,setting,value
"CC[N+]([O-])(CC)CCOc1ccc(Nc2ncc3cc(-c4c(Cl)cccc4Cl)c(=O)n(C)c3n2)cc1 [Example 43, 6-(2,6-Dichlorophenyl)-2-[4-[2-(diethylamino)ethoxyl-thenyl]aminol-8-methyl-pyridor2,3-d]pyrimidin-7 (8H)-one, N^ω -oxide]",IC50,[1],0.07 µM
same,IC50,[2],0.063 µM
same,IC50,[3],0.015 µM
